Test results published in publication PMC12143348, “Rapid and reversible fluorescent probe enables repeated snapshot imaging of AMPA receptors during synaptic plasticity” (Science Advances, 2025).
“Also recorded” adds a separate entry of the source.

Tests used:
GluA1 = GluA1 (Mus musculus, UniProt P23818); experiment: Concentration-dependent binding of PFQX1(AF488), confocal live imaging of HEK293T cells expressing GluA1; conditions: n = 3, mean ± s.e.m., read-out: Kd / Affinity of PFQX1(AF488) to GluA1
Experimental: (§1) HEK293T cells were cotransfected with plasmids for AMPAR [5′UTR-GluA1^flip(R)-3′UTR, GluA2^flip(Q)-3′UTR, GluA3^flip(Q) (Y454A/R461G), and GluA4^flip(Q)], kainate receptor [GluK2(Q)], auxiliary subunits, or the control vector and transfection marker (EFGP-F or mCherry-F). Fluorophore-ligand conjugates were diluted in Hepes-buffered saline (HBS) buffer [20 mM Hepes (pH 7.4), 107 mM NaCl, 6 mM KCl, 1.2 mM MgSO4, 2 mM CaCl2, and 11.5 mM glucose] and added to the cells. Confocal live imaging was performed with LSM900 (Carl Zeiss) equipped with a 63×, numerical aperture (NA) = 1.4 oil-immersion objective. Fluorescence images were acquired by excitation at 405, 488, 561, or 640 nm derived from diode lasers.
(§2) For evaluating the concentration dependency of fluorophore-ligand conjugates, 0.1 nM probe in HBS was added to the dish. Then, probes in HBS were added stepwise to the dish to a final concentration of 0.3, 1, 3, 10, 30, 100, 300, 1000, and 3000 nM. Cell surface fluorescence intensity was quantified from the line scans of transfection marker positive cells and calculated with subtraction of background by ZEN blue software (Carl Zeiss). The membrane intensity was fitted with KaleidaGraph (Synergy software) to calculate the equilibrium constant value using the following equation: a + (b − a)/(1 + (x/c)^d). The equilibrium constant is regarded as the Kd in this study.

GluA2flip(R) + GSG1L = molecular target: T1, GluA2flip(R) + GSG1L (Mus musculus, UniProt P23819, DEL765-802/Q607R); experiment: Concentration-dependent binding of PFQX1(AF488) to GluA2flip(R) expressed with GSG1L in HEK293T cells; conditions: n = 3–4, read-out: Kd / Affinity of PFQX1(AF488) to GluA2flip(R) with GSG1L
T1 construct: expressed in transfected cells; host or cells: HEK293T
Experimental: as §1
as §2, with “The membrane intensity was fitted with KaleidaGraph (Synergy software) to calculate the equilibrium constant value using the following equation: a + (b − a)/(1 + (x/c)^d). The equilibrium constant is regarded as the Kd in this study.” left out
(A) Concentration-dependent binding of PFQX1(AF488) to GluA2 flip(R) expressed with GSG1L or TARP γ7. […] (B) The surface intensity of PFQX1(AF488) was quantified. […]

[1] = pH-dependency of fluorescent intensity in GTA buffer (spectrofluorophotometer); assay type: physicochemical; conditions: 2 µM probe in GTA buffer pH 4–10, normalized to pH 10
Experimental: Evaluation of the affinity of PFQX-amine
HEK293T cells were co-transfected with GluA2 flip(Q)-3’UTR and mCherry-F as a transfection marker. After washing the cells with HBS, 30 nM PFQX1(AF488) was added to the dish. Then, PFQX-amine in HBS was step-wisely added to the dish to a final […]
performed with confocal microscopy. Cell surface fluorescent intensity was quantified from the line scans of transfection marker positive cells calculated by ZEN blue software and calculated with subtraction of background. The membrane intensity was fitted with KaleidaGraph to calculate the IC50 value using the following equation:a + (b-a)/(1+(x/c)^d). The Ki value was calculated using the Cheng-Prusoff equation: Ki = IC50/(1+[S]/K d). In the equation, [S] and Kd were the concentration and dissociation constant of PFQX1(AF488), respectively. pH-dependency of fluorescent intensity
Fluorescent intensity was determined by spectrofluorophotometer RF-6000 (Shimadzu). […]
glutaric acid, 0.1 M Tris, 0.1 M 2-amino-2-methyl-1,3-propanediol) to a final concentration of 2 µM. pH value of GTA buffer was adjusted to 4, 5, 6, 7, 8, 9, and 10.
Fluorescent intensity was normalized by the intensity at pH 10.
For the evaluation in cells, HEK293T cells expressing GluA2 or primary cultured hippocampal neurons were used. […]

AMPARs = experiment: Staining of AMPARs in acute cerebellar slices; assay type: binding, mouse; conditions: 30 nM probe; acute cerebellar slices; incubation at least 5 min
Experimental: following secondary antibodies were used: donkey anti-mouse CF568 conjugated (Sigma, […]
1:1,000) and anti-rabbit Alexa Fluor Plus 488 conjugated (Invitrogen, A32731, 1,000).
Imaging was performed with confocal microscopy.
With two-step labeling, the cells were labeled as described in “Two -step labeling and PFQX1(AF488)staining in cultured neurons,” followed by immunostaining.
In fig. S9A, the cells were incubated with 500 nM CellTracker Red CMPTX (Invitrogen) instead of Calcein Red AM for 30 min at 37 °C to visualize the intracellular region before the immunostaining.
Preparation and staining of cerebellar acute brain slices
C57BL/6J mice (3 weeks) were anesthetized with isoflurane, and their brains were isolated and immediately transferred to ice-cold cutting solution buffer (120 mM Choline Chloride, 3 mM KCl, 8 mM MgCl2, 1.25 mM NaH2PO4, 28 mM NaHCO3, 22 mM Glucose, and 0.5 mM Sodium ascorbate) gassed with 5% CO2 and 95% O2 and incubated for 5 min. Sagittal cerebellar slices were cut with a microslicer (Neo-linear slicer NLS-MT; DOSAKA EM) in cutting solution buffer and then incubated in ACSF […]
NaHCO3, 10 mM Glucose) gassed with 5% CO 2 and 95% O 2 at 37 °C.
Acute slices were transferred to glass bottom dishes and treated with 30 nM PFQX1(AF488) in HEPES-based ACSF for 5 min. […]
Scale bars, 500 µm. (F) Quantification of probe intensity in Ε. […]

T1 sequence (P23819 with tags, fused parts or gaps isoform P23819-4 Q607R/DEL765-802): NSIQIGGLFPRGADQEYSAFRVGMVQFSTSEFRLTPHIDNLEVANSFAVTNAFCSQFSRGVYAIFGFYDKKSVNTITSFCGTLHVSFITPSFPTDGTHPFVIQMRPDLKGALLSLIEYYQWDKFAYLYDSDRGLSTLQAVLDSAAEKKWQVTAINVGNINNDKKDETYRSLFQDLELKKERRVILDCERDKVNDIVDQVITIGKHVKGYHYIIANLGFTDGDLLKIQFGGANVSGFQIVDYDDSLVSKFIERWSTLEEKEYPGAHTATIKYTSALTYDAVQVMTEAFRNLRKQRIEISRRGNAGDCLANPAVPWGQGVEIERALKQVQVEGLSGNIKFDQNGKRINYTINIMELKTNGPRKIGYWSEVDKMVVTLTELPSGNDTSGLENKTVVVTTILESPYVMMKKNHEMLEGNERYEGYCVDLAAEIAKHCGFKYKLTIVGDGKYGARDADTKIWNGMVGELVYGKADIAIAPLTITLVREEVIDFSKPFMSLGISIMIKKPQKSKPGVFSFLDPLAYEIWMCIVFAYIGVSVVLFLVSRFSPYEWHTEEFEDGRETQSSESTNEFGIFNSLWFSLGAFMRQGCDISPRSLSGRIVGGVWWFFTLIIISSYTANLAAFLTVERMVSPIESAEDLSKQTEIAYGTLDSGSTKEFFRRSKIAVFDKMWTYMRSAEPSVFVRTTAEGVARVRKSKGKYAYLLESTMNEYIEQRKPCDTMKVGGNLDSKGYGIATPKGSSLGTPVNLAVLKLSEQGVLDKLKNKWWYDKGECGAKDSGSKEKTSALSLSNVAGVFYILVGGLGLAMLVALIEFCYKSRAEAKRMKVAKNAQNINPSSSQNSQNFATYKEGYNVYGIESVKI
T1 sequence (D3Z7H4 whole entry partner): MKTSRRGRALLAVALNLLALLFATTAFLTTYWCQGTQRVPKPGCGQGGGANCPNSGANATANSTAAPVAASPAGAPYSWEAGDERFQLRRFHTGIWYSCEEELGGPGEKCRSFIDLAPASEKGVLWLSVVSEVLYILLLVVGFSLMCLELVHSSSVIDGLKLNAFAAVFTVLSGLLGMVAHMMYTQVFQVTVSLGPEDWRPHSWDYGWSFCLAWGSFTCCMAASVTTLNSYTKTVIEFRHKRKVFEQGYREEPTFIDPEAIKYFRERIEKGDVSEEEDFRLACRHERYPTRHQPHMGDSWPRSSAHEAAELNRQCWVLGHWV
Sequence of GluA1 (P23818 19-907): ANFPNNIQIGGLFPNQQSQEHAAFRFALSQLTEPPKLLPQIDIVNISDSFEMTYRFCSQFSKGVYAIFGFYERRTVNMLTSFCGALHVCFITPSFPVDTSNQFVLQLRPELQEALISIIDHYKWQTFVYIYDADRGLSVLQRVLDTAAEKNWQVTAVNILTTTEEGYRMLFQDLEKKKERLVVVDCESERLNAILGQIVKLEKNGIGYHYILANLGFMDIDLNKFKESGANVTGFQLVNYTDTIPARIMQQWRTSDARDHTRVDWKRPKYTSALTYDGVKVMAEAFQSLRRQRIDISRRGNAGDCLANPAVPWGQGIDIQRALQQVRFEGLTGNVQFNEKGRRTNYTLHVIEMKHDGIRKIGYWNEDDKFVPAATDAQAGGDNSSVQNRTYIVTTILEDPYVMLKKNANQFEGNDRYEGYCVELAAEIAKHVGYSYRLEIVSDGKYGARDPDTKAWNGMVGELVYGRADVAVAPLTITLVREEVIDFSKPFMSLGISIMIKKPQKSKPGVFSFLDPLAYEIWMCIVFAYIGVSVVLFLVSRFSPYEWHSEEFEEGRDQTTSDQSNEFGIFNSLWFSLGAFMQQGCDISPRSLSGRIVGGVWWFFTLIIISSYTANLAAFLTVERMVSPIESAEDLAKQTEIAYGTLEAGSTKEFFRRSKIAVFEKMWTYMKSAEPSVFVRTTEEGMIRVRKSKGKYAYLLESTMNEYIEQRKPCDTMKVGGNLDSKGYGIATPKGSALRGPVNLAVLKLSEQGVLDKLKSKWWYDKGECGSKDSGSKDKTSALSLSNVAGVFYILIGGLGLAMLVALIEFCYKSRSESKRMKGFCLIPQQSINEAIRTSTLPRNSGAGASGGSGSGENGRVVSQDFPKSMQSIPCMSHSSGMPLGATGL

Kd (GluA1): 78.7 ± 15.4 nM | Kd (GluA2flip(R) + GSG1L): 34.5 ± 12.4 nM | reversibility of binding (medium exchange) in slices (AMPARs): can be washed out by the medium exchange
SMILES: N=c1ccc2c(-c3ccc(C(=O)NCc4ccn(-c5cc6c(cc5C(F)(F)F)[nH]c(=O)c(=O)n6CC(=O)O)c4)cc3C(=O)O)c3ccc(N)c(S(=O)(=O)O)c3oc-2c1S(=O)(=O)O [PFQX1(AF488)]
pH dependency of the fluorescence intensity [1]: relatively unaffected at pH 5 to 10; also recorded: pH-independent manner in the pH 5 to 10 range
